“And” between values parts separate entries of the source, which are not always exact repeats. Equal values may be shown once. Toxic doses and inconclusive results are not listed.
System: BDF1 mice, B16 melanoma ip, median survival T/C
Assay: NCI In Vivo Anticancer Drug Screen. Data for tumor model B16 Melanoma (intraperitoneal) in B6D2F1 (BDF1) mice
Settings: endpoint: median survival time, higher = longer survival
Method in brief: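 Mice with transplantable tumors; drug vs vehicle groups; endpoint survival or tumor size; value = T/C.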

[1] = dose: 100.0 mg/kg/injection, schedule: Q04DX003 (ip), vehicle: saline with Tween-80
[2] = dose: 200.0 mg/kg/injection, schedule: Q04DX003 (ip), vehicle: saline with Tween-80
[3] = dose: 400.0 mg/kg/injection, schedule: Q04DX003 (ip), vehicle: saline with Tween-80
[4] = dose: 50.0 mg/kg/injection, schedule: Q01DX009 (ip), vehicle: Klucel (hydroxypropylcellulose) (HPC)
[5] = dose: 100.0 mg/kg/injection, schedule: Q01DX009 (ip), vehicle: Klucel (hydroxypropylcellulose) (HPC)
[6] = dose: 200.0 mg/kg/injection, schedule: Q01DX009 (ip), vehicle: Klucel (hydroxypropylcellulose) (HPC)
[7] = dose: 12.5 mg/kg/injection, schedule: Q01DX009 (ip), vehicle: saline with Tween-80
[8] = dose: 25.0 mg/kg/injection, schedule: Q01DX009 (ip), vehicle: saline with Tween-80
[9] = dose: 50.0 mg/kg/injection, schedule: Q01DX009 (ip), vehicle: saline with Tween-80
[10] = dose: 25.0 mg/kg/injection, schedule: Q01DX009 (ip), vehicle: Klucel (hydroxypropylcellulose) (HPC)
[11] = dose: 100.0 mg/kg/injection, schedule: Q01DX009 (ip), vehicle: saline with Tween-80
[12] = dose: 200.0 mg/kg/injection, schedule: Q01DX009 (ip), vehicle: saline with Tween-80

In the case of `Cc1cc(C)c(C(=O)O)c(C)c1Br`, the T/C [1] is reported as 102 % of control, the T/C [2] is reported as 97 % of control and the T/C [3] is reported as 100 % of control.

With `CCN(CC)CCCCCOC(=O)c1ccccc1` the T/C [4] was 112 % of control, the T/C [5] was 93 % of control and the T/C [6] was 103 % of control.

`C1CCC2[N-]CC3CCCCC3[N-]CC3CCCCC3[N-]CC3CCCCC3[N-]CC2C1.[Cu]` (centres undefined) was tested, and the T/C (dose: 1.56 mg/kg/injection, schedule: Q01DX009 (ip), vehicle: Klucel (hydroxypropylcellulose) (HPC)) was 123 % of control and the T/C (dose: 3.12 mg/kg/injection, schedule: Q01DX009 (ip), vehicle: Klucel (hydroxypropylcellulose) (HPC)) was 156 % of control.

`COc1ccc(C2=CN(S(=O)(=O)c3ccc(C)cc3)CCc3ccccc32)cc1` was tested, and the T/C (dose: 25.0 mg/kg/injection, schedule: Q04DX003 (ip), vehicle: Klucel (hydroxypropylcellulose) (HPC)) was 112 % of control, the T/C (dose: 50.0 mg/kg/injection, schedule: Q04DX003 (ip), vehicle: Klucel (hydroxypropylcellulose) (HPC)) was 110 % of control and the T/C (dose: 100.0 mg/kg/injection, schedule: Q04DX003 (ip), vehicle: Klucel (hydroxypropylcellulose) (HPC)) was 91 % of control and 111 % of control. The T/C (dose: 400.0 mg/kg/injection, schedule: Q04DX003 (ip), vehicle: Klucel (hydroxypropylcellulose) (HPC)) was 90 % of control.

In the case of `O=NN(CCBr)C(=O)Nc1ccccc1`, the T/C [7] is reported as 152 % of control, the T/C [8] is reported as 202 % of control and the T/C (dose: 37.5 mg/kg/injection, schedule: Q01DX009 (ip), vehicle: saline with Tween-80) is reported as 171 % of control. For the same molecule, the T/C [9] was 177 % of control.

For `COC1CC(OC2CCC3(C)C(CCC45OC46CCC(C4=CC(=O)OC4)C6(C)CCC35)C2)OC(C)C1O` (centres undefined), the T/C (dose: 1.2 mg/kg/injection, schedule: Q01DX009 (ip), vehicle: saline) was 98 % of control, the T/C (dose: 1.8 mg/kg/injection, schedule: Q01DX009 (ip), vehicle: saline) was 101 % of control and the T/C (dose: 2.75 mg/kg/injection, schedule: Q01DX009 (ip), vehicle: saline) was 87 % of control. For the same molecule, the T/C (dose: 12.5 mg/kg/injection, schedule: Q01DX009 (ip), vehicle: saline) was 96 % of control and the T/C (dose: 25.0 mg/kg/injection, schedule: Q01DX009 (ip), vehicle: saline) was 89 % of control.

For `Cc1c(Cl)cc(Cl)c(N)c1Cl`, the T/C [1] was 86 % of control, the T/C [2] was 93 % of control and the T/C [3] was 90 % of control.

`O=[N+]([O-])/C=C/c1ccc([N+](=O)[O-])cc1Cl` was tested, and the T/C (dose: 0.18 mg/kg/injection, schedule: Q01DX009 (ip), vehicle: Klucel (hydroxypropylcellulose) (HPC)) was 111 % of control, the T/C (dose: 0.37 mg/kg/injection, schedule: Q01DX009 (ip), vehicle: Klucel (hydroxypropylcellulose) (HPC)) was 96 % of control and the T/C (dose: 0.75 mg/kg/injection, schedule: Q01DX009 (ip), vehicle: Klucel (hydroxypropylcellulose) (HPC)) was 87 % of control and 90 % of control.

In the case of `Cc1ccc[n+](CCc2c[nH]c3ccccc23)c1`, the T/C [7] is reported as 111 % of control, the T/C [8] is reported as 99 % of control and the T/C [9] is reported as 95 % of control.

In the case of `CC(C)=CCC1(O)C(=O)c2ccccc2C1(O)C(=O)O` (centres undefined), the T/C [10] is reported as 92 % of control, the T/C [4] is reported as 101 % of control and the T/C [5] is reported as 90 % of control. For the same molecule, the T/C [6] was 93 % of control.

For `Cc1ccc(C(=O)NC2C(=O)NC(C(C)C)C(=O)N3CCCC3C(=O)N(C)CC(=O)N(C)C(C(C)C)C(=O)OC2C)c2c1Oc1c(c(C(=O)NC3C(=O)NC(C(C)C)C(=O)N4CCCC4C(=O)N(C)CC(=O)N(C)C(C(C)C)C(=O)OC3C)c3nc(-c4ccccc4)c(=O)oc3c1C)N2` (centres undefined), the T/C (dose: 0.13 mg/kg/injection, schedule: Q04DX003 (ip), vehicle: saline + alcohol) was 124 % of control, the T/C (dose: 0.13 mg/kg/injection, schedule: Q04DX003 (ip), vehicle: water) was 155 % of control and the T/C (dose: 0.25 mg/kg/injection, schedule: Q04DX003 (ip), vehicle: saline + alcohol) was 152 % of control. For the same molecule, the T/C (dose: 0.5 mg/kg/injection, schedule: Q04DX003 (ip), vehicle: saline + alcohol) was 156 % of control, the T/C (dose: 0.5 mg/kg/injection, schedule: Q04DX003 (ip), vehicle: water) was 163 % of control and the T/C (dose: 1.0 mg/kg/injection, schedule: Q04DX003 (ip), vehicle: saline + alcohol) was 191 % of control. For the same molecule, the T/C (dose: 1.0 mg/kg/injection, schedule: Q04DX003 (ip), vehicle: water) was 173 % of control.

With `CC(C)C(Br)C(=O)NCC(=O)O` (centres undefined) the T/C [7] was 101 % of control, the T/C [8] was 95 % of control and the T/C [9] was 102 % of control.

In the case of `CN(C)CCCNc1c2ccccc2nc2cccc([N+](=O)[O-])c12`, the T/C (dose: 2.0 micrograms/kg/injection, schedule: Q01DX009 (ip), vehicle: saline) is reported as 112 % of control, the T/C (dose: 4.0 micrograms/kg/injection, schedule: Q01DX009 (ip), vehicle: saline) is reported as 116 % of control and the T/C (dose: 8.0 micrograms/kg/injection, schedule: Q01DX009 (ip), vehicle: saline) is reported as 107 % of control. For the same molecule, the T/C (dose: 16.0 micrograms/kg/injection, schedule: Q01DX009 (ip), vehicle: saline) was 109 % of control, the T/C (dose: 32.0 micrograms/kg/injection, schedule: Q01DX009 (ip), vehicle: saline) was 121 % of control and the T/C (dose: 63.0 micrograms/kg/injection, schedule: Q01DX009 (ip), vehicle: saline) was 103 % of control. The T/C (dose: 125.0 micrograms/kg/injection, schedule: Q01DX009 (ip), vehicle: saline) was 90 % of control.

With `CC(c1c[nH]c2ccccc12)N1CCCCC1` (centres undefined) the T/C (dose: 12.5 mg/kg/injection, schedule: Q01DX009 (ip), vehicle: Klucel (hydroxypropylcellulose) (HPC)) was 97 % of control, the T/C [10] was 95 % of control and the T/C [4] was 98 % of control.

For `CC(=O)NC(CO)C(=O)c1ccc(S(=O)(=O)c2ccccc2)cc1` (centres undefined), the T/C [11] was 102 % of control and the T/C [12] was 93 % of control.

In the case of `Cc1cnnc2ccccc12`, the T/C [7] is reported as 91 % of control, the T/C [8] is reported as 98 % of control and the T/C [9] is reported as 95 % of control.

In the case of `O=C1c2ccccc2C(=O)c2c3c(cc(NCCNCCO)c21)N(CCO)CCN3`, the T/C (dose: 12.5 mg/kg/injection, schedule: Q01DX009 (ip), vehicle: DMSO) is reported as 121 % of control, the T/C (dose: 100.0 mg/kg/injection, schedule: Q01DX009 (ip), vehicle: DMSO) is reported as 162 % of control and the T/C (dose: 200.0 mg/kg/injection, schedule: Q01DX009 (ip), vehicle: DMSO) is reported as 194 % of control.

`O=c1nc(NC(=S)Nc2ccn(C3OC(CO)C(O)C3O)c(=O)n2)ccn1C1OC(CO)C(O)C1O` (centres undefined) was tested, and the T/C (dose: 4.0 mg/kg/injection, schedule: Q01DX009 (ip), vehicle: saline sonified) was 97 % of control, the T/C (dose: 8.0 mg/kg/injection, schedule: Q01DX009 (ip), vehicle: saline sonified) was 102 % of control and the T/C (dose: 8.0 mg/kg/injection, schedule: Q01DX009 (ip), vehicle: saline with Tween-80) was 95 % of control. For the same molecule, the T/C (dose: 16.0 mg/kg/injection, schedule: Q01DX009 (ip), vehicle: saline sonified) was 100 % of control, the T/C (dose: 16.0 mg/kg/injection, schedule: Q01DX009 (ip), vehicle: saline with Tween-80) was 108 % of control and the T/C (dose: 32.0 mg/kg/injection, schedule: Q01DX009 (ip), vehicle: saline sonified) was 102 % of control. For the same molecule, the T/C (dose: 32.0 mg/kg/injection, schedule: Q01DX009 (ip), vehicle: saline with Tween-80) was 95 % of control and the T/C (dose: 64.0 mg/kg/injection, schedule: Q01DX009 (ip), vehicle: saline with Tween-80) was 104 % of control.

`O=C(O)CSc1nc(-c2ccccc2)c(-c2ccccc2)n1-c1ccccn1` was tested, and the T/C (dose: 12.5 mg/kg/injection, schedule: Q01DX009 (ip), vehicle: water) was 98 % of control, the T/C (dose: 25.0 mg/kg/injection, schedule: Q01DX009 (ip), vehicle: water) was 97 % of control and the T/C (dose: 50.0 mg/kg/injection, schedule: Q01DX009 (ip), vehicle: water) was 98 % of control. For the same molecule, the T/C (dose: 100.0 mg/kg/injection, schedule: Q01DX009 (ip), vehicle: water) was 98 % of control.

For `CCN(C(=O)Nc1ccc(Cl)cc1)c1ccccc1`, the T/C [11] was 94 % of control, the T/C [12] was 97 % of control and the T/C (dose: 400.0 mg/kg/injection, schedule: Q01DX009 (ip), vehicle: saline with Tween-80) was 92 % of control.

In the case of `CCN(CCP(c1ccccc1)c1ccccc1)CCP(c1ccccc1)c1ccccc1`, the T/C (dose: 3.13 mg/kg/injection, schedule: Q01DX009 (ip), vehicle: saline with Tween-80) is reported as 119 % of control, the T/C (dose: 6.25 mg/kg/injection, schedule: Q01DX009 (ip), vehicle: saline with Tween-80) is reported as 113 % of control and the T/C [7] is reported as 90 % of control and 115 % of control. For the same molecule, the T/C (dose: 12.5 mg/kg/injection, schedule: Q04DX003 (ip), vehicle: saline with Tween-80) was 104 % of control, the T/C [8] was 100 % of control and the T/C (dose: 25.0 mg/kg/injection, schedule: Q04DX003 (ip), vehicle: saline with Tween-80) was 107 % of control. For the same molecule, the T/C (dose: 50.0 mg/kg/injection, schedule: Q04DX003 (ip), vehicle: saline with Tween-80) was 109 % of control.
